Laboratory results reported in ChEMBL document CHEMBL1201862, “PubChem BioAssay data set” (2004).
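Five compound concentrations were applied to cells in 96-well plates for 48 hours; endpoints were derived by simple linear interpolation of the resulting dose-response curve. GI50: concentration for 50% inhibition of growth.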 The source made the active and inactive calls. Cut-off read from the data, not from the text of the source: active = GI50 up to about 1.1 µM and inactive = higher.

Assays:
Test in all cases: DTP human tumour cell line panel, 48 h
SNB-75 = test system: SNB-75
PC-3 = test system: PC-3
SF-268 = test system: SF-268
MDA-N = test system: MDA-N
SF-539 = test system: SF-539
MOLT-4 = test system: MOLT-4
NCI-H460 = test system: NCI-H460
HCC 2998 = test system: HCC 2998
DU-145 = test system: DU-145
MDA-MB-231 = test system: MDA-MB-231
SF-295 = test system: SF-295
M14 = test system: M14
MCF7 = test system: MCF7
OVCAR-4 = test system: OVCAR-4
HCT-15 = test system: HCT-15
SW-620 = test system: SW-620
SN12C = test system: SN12C
SK-OV-3 = test system: SK-OV-3
SNB-19 = test system: SNB-19
NCI-H23 = test system: NCI-H23
SK-MEL-28 = test system: SK-MEL-28
UACC-257 = test system: UACC-257
OVCAR-5 = test system: OVCAR-5
OVCAR-3 = test system: OVCAR-3
CCRF-CEM = test system: CCRF-CEM
TK-10 = test system: TK-10
HOP-92 = test system: HOP-92
NCI/ADR-RES = test system: NCI/ADR-RES
NCI-H522 = test system: NCI-H522
A498 = test system: A498
Malme-3M = test system: Malme-3M
HCT-116 = test system: HCT-116
IGROV-1 = test system: IGROV-1
COLO 205 = test system: COLO 205
T47D = test system: T47D
UO-31 = test system: UO-31
K562 = test system: K562
OVCAR-8 = test system: OVCAR-8
CAKI-1 = test system: CAKI-1
SK-MEL-5 = test system: SK-MEL-5
MDA-MB-435 = test system: MDA-MB-435
LOX IMVI = test system: LOX IMVI
U-251 = test system: U-251
RPMI-8226 = test system: RPMI-8226
EKVX = test system: EKVX
UACC-62 = test system: UACC-62
RXF 393 = test system: RXF 393
A549 = test system: A549
KM12 = test system: KM12
HL-60 = test system: HL-60
NCI-H226 = test system: NCI-H226
HOP-62 = test system: HOP-62
ACHN = test system: ACHN
Hs-578T = test system: Hs-578T
BT-549 = test system: BT-549
HT-29 = test system: HT-29
786-0 = test system: 786-0
SR = test system: SR
SK-MEL-2 = test system: SK-MEL-2

## O=C1C2=Nc3ccccc3C(O)N2c2ccccc21 (configuration not stated)
SNB-75
  GI50: 23.6 µM (inactive)
PC-3
  GI50: > 86.9 µM (inactive)
SF-268
  GI50: 31.6 µM (inactive)
MDA-N
  GI50: 1.84 µM (inactive)
SF-539
  GI50: 49.3 µM (inactive)
MOLT-4
  GI50: > 87.5 µM (inactive)
NCI-H460
  GI50: 20.2 µM (inactive)
HCC 2998
  GI50: 27.2 µM (inactive)
DU-145
  GI50: 53.3 µM (inactive)
MDA-MB-231
  GI50: 14.9 µM (inactive)
SF-295
  GI50: 35.9 µM (inactive)
M14
  GI50: > 78.2 µM (inactive)
MCF7
  GI50: 11.1 µM (inactive)
OVCAR-4
  GI50: > 100 µM (inactive)
HCT-15
  GI50: 16.6 µM
SW-620
  GI50: > 100 µM (inactive)
SN12C
  GI50: 27.2 µM (inactive)
SK-OV-3
  GI50: 68.2 µM (inactive)
SNB-19
  GI50: 74.1 µM (inactive)
NCI-H23
  GI50: 3.92 µM (inactive)
SK-MEL-28
  GI50: 23.4 µM (inactive)
UACC-257
  GI50: 4.09 µM (inactive)
OVCAR-5
  GI50: 81.1 µM (inactive)
OVCAR-3
  GI50: 11.6 µM (inactive)
CCRF-CEM
  GI50: > 92.7 µM (inactive)
TK-10
  GI50: > 100 µM (inactive)
HOP-92
  GI50: > 100 µM (inactive)
NCI/ADR-RES
  GI50: 40.3 µM (inactive)
NCI-H522
  GI50: 8.91 µM (inactive)
A498
  GI50: 18.7 µM (inactive)
Malme-3M
  GI50: 14.3 µM (inactive)
HCT-116
  GI50: > 83.4 µM (inactive)
IGROV-1
  GI50: 40.2 µM (inactive)
COLO 205
  GI50: 39.2 µM (inactive)
T47D
  GI50: 37.6 µM (inactive)
UO-31
  GI50: 46.8 µM (inactive)
K562
  GI50: > 76 µM (inactive)
OVCAR-8
  GI50: 32.3 µM (inactive)
CAKI-1
  GI50: 48.4 µM (inactive)
SK-MEL-5
  GI50: 1.95 µM (inactive)
MDA-MB-435
  GI50: 2.56 µM (inactive)
LOX IMVI
  GI50: 2.96 µM (inactive)
U-251
  GI50: > 52.5 µM (inactive)
RPMI-8226
  GI50: 53.8 µM (inactive)
EKVX
  GI50: 57.9 µM (inactive)
UACC-62
  GI50: 3.51 µM (inactive)
RXF 393
  GI50: > 10 µM (inactive)
A549
  GI50: 32.8 µM (inactive)
KM12
  GI50: > 78.5 µM (inactive)
HL-60
  GI50: 2.37 µM (inactive)
NCI-H226
  GI50: 27.8 µM (inactive)
HOP-62
  GI50: 65.3 µM (inactive)
ACHN
  GI50: 5.62 µM (inactive)
Hs-578T
  GI50: 40.5 µM (inactive)
BT-549
  GI50: 28.4 µM (inactive)
HT-29
  GI50: 58.2 µM (inactive)
786-0
  GI50: 36.6 µM (inactive)
SR
  GI50: 86.5 µM (inactive)

## CC1=NN(c2cccc(Cl)c2)C2(C1=Cc1cccs1)C(Cl)C(=O)N2c1nc2ccccc2s1 (configuration not stated)
SK-MEL-2
  GI50: 17.9 µM (inactive)
SNB-75
  GI50: 34.8 µM (inactive)
PC-3
  GI50: 20.9 µM (inactive)
SF-268
  GI50: 21.5 µM (inactive)
MDA-N
  GI50: 22.1 µM (inactive)
SF-539
  GI50: 15.2 µM (inactive)
MOLT-4
  GI50: 22.3 µM (inactive)
NCI-H460
  GI50: 20 µM (inactive)
HCC 2998
  GI50: 17 µM (inactive)
DU-145
  GI50: 33.8 µM (inactive)
MDA-MB-231
  GI50: 19.7 µM (inactive)
SF-295
  GI50: 19.6 µM (inactive)
M14
  GI50: 34.8 µM (inactive)
MCF7
  GI50: 23.2 µM (inactive)
OVCAR-4
  GI50: 28.9 µM (inactive)
HCT-15
  GI50: 20.6 µM
SW-620
  GI50: 38.4 µM (inactive)
NCI-H23
  GI50: 21.3 µM (inactive)
SK-MEL-28
  GI50: 39.4 µM (inactive)
UACC-257
  GI50: 23.2 µM (inactive)
OVCAR-5
  GI50: 18.2 µM (inactive)
OVCAR-3
  GI50: 17.7 µM (inactive)
TK-10
  GI50: 28.6 µM (inactive)
HOP-92
  GI50: 21.2 µM (inactive)
NCI/ADR-RES
  GI50: 21.9 µM (inactive)
NCI-H522
  GI50: 18.5 µM (inactive)
A498
  GI50: 21.8 µM (inactive)
HCT-116
  GI50: 18.4 µM (inactive)
IGROV-1
  GI50: 28.6 µM (inactive)
T47D
  GI50: 28.6 µM (inactive)
UO-31
  GI50: 23.9 µM (inactive)
K562
  GI50: 25.7 µM (inactive)
OVCAR-8
  GI50: 20.4 µM (inactive)
CAKI-1
  GI50: 23.5 µM (inactive)
SK-MEL-5
  GI50: 17.4 µM (inactive)
MDA-MB-435
  GI50: 30.4 µM (inactive)
LOX IMVI
  GI50: 19.6 µM (inactive)
U-251
  GI50: 15.1 µM (inactive)
RPMI-8226
  GI50: 17.9 µM (inactive)
EKVX
  GI50: 19.5 µM (inactive)
RXF 393
  GI50: 21.1 µM (inactive)
A549
  GI50: 21.9 µM (inactive)
KM12
  GI50: 28.7 µM (inactive)
HL-60
  GI50: 25.6 µM (inactive)
NCI-H226
  GI50: 24.3 µM (inactive)
HOP-62
  GI50: 27.6 µM (inactive)
ACHN
  GI50: 20.8 µM (inactive)
Hs-578T
  GI50: 27.4 µM (inactive)
BT-549
  GI50: 25.2 µM (inactive)
HT-29
  GI50: 21.6 µM (inactive)
786-0
  GI50: 13.8 µM (inactive)
SR
  GI50: 18.5 µM (inactive)

## COC(=O)CC(=O)Nc1sccc1S(=O)(=O)c1ccccc1
SK-MEL-2
  GI50: 66.2 µM (inactive)
SNB-75
  GI50: > 100 µM (inactive)
PC-3
  GI50: 34.4 µM (inactive)
SF-268
  GI50: > 100 µM (inactive)
MDA-N
  GI50: 35.2 µM (inactive)
SF-539
  GI50: 35.1 µM (inactive)
MOLT-4
  GI50: > 100 µM (inactive)
NCI-H460
  GI50: > 100 µM (inactive)
HCC 2998
  GI50: 15.8 µM (inactive)
DU-145
  GI50: 71.3 µM (inactive)
MDA-MB-231
  GI50: > 100 µM (inactive)
SF-295
  GI50: > 100 µM (inactive)
M14
  GI50: 27 µM (inactive)
MCF7
  GI50: 65.8 µM (inactive)
OVCAR-4
  GI50: 54.3 µM (inactive)
HCT-15
  GI50: 27.2 µM
SW-620
  GI50: > 100 µM (inactive)
SN12C
  GI50: > 100 µM (inactive)
SK-OV-3
  GI50: > 100 µM (inactive)
SNB-19
  GI50: > 100 µM (inactive)
NCI-H23
  GI50: > 100 µM (inactive)
SK-MEL-28
  GI50: > 100 µM (inactive)
UACC-257
  GI50: 67.1 µM (inactive)
OVCAR-5
  GI50: > 100 µM (inactive)
OVCAR-3
  GI50: 16.4 µM (inactive)
CCRF-CEM
  GI50: > 100 µM (inactive)
TK-10
  GI50: 65.9 µM (inactive)
HOP-92
  GI50: > 100 µM (inactive)
NCI/ADR-RES
  GI50: > 100 µM (inactive)
NCI-H522
  GI50: 46.9 µM (inactive)
A498
  GI50: > 100 µM (inactive)
Malme-3M
  GI50: > 100 µM (inactive)
HCT-116
  GI50: > 100 µM (inactive)
IGROV-1
  GI50: > 100 µM (inactive)
COLO 205
  GI50: > 100 µM (inactive)
T47D
  GI50: > 100 µM (inactive)
UO-31
  GI50: 40.5 µM (inactive)
K562
  GI50: 80.7 µM (inactive)
OVCAR-8
  GI50: > 100 µM (inactive)
CAKI-1
  GI50: > 100 µM (inactive)
SK-MEL-5
  GI50: > 100 µM (inactive)
MDA-MB-435
  GI50: > 100 µM (inactive)
U-251
  GI50: > 100 µM (inactive)
RPMI-8226
  GI50: > 100 µM (inactive)
EKVX
  GI50: > 100 µM (inactive)
UACC-62
  GI50: 49.1 µM (inactive)
RXF 393
  GI50: 44.4 µM (inactive)
A549
  GI50: > 100 µM (inactive)
KM12
  GI50: 94.8 µM (inactive)
HL-60
  GI50: > 100 µM (inactive)
NCI-H226
  GI50: 40.3 µM (inactive)
ACHN
  GI50: > 100 µM (inactive)
Hs-578T
  GI50: > 100 µM (inactive)
BT-549
  GI50: 27.5 µM (inactive)
HT-29
  GI50: > 100 µM (inactive)
786-0
  GI50: 50.5 µM (inactive)
SR
  GI50: > 100 µM (inactive)
